Measured values: patent publication US20250320362A1, “Suspensions and Solutions of Dyes For Colored Coatings” (Northeastern University, priority 2022, published 2025)

How the values were obtained:
Type in all cases: physicochemical
[1] = pH-dependent xanthommatin solubility in water; details: solid pigment suspended in acidic to alkaline water (pH 2-12), agitation, then centrifugation
Experimental: Evaluation of pH-dependent xanthommatin solubility: Fractions of solid xanthommatin corresponding to 1 mg of starting material were dispersed in 1 mL of filtered water adjusted to pH 2.01, 4.00, 6.00, 7.00, 8.01, 10.01, or 12.00. Samples were mixed by pipetting, centrifuged at 15,000 g for 5 minutes, and imaged with a camera to record the mass of undissolved material (FIG. 1C, top panel). Each sample was then diluted to 1.5 mL with water adjusted to its respective pH, mixed by vortexing, sonicated for 5 minutes, centrifuged at 15,000 g for 5 minutes, and imaged again (FIG. 1C, bottom panel).

[2] = solubility of xanthommatin in carrier liquids (water, MES buffer); details: oxidized xanthommatin
[3] = xanthommatin solubility in water-based polyurethane; details: pigment added as suspension in water or solution in MES buffer; Rust-Oleum 6711; judged by absence of solid after centrifugation
Experimental: Evaluation of xanthommatin solubility in water-based polyurethane: Two quantities of solid xanthommatin, corresponding to either 0.2 or 1.6 mg of xanthommatin, were dissolved or dispersed in 0.3 mL of MES buffer (0.1 M, pH 5.5) or deionized water, and added to 0.27 g fractions of water-based polyurethane paint (Rust-Oleum 6711). Pigment-free samples were prepared as controls. After mixing, these samples were centrifuged (15,000 g, 5 minutes), and imaged using a camera (FIG. 1D).

Structure (SMILES): NC(CC(=O)c1cccc2oc3cc(=O)c4[nH]c(C(=O)O)cc(=O)c4c-3nc12)C(=O)O (centres unmarked) [xanthommatin, 11-(3-amino-3-carboxypropanoyl)-1,5-dioxo-4H-pyrido[3,2-a]phenoxazine-3-carboxylic acid]
- solubility in water, acidic conditions ([1]; acidic conditions): sparingly soluble/insoluble
- solubility in water, basic conditions ([1]; basic conditions): most soluble
- solubility in MES buffer (carrier liquid) ([2]; MES buffer): fully soluble
- solubility in water (carrier liquid) ([2]; water): only slightly soluble
- solubility in water-based polyurethane paint base [3]: fully soluble
